Results: ChEMBL document CHEMBL1201862, “PubChem BioAssay data set” (2004)
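These data come from cells grown in 96-well plates and exposed to compound for 48 hours at five concentrations. Here, GI50 denotes the concentration required for 50% inhibition of growth.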 Activity calls are given as the source filed them. Cut-off read from the data, not from the text of the source: active = GI50 up to about 1.1 µM and inactive = higher.

Tests used:
Assay in all cases: NCI tumour cell line growth inhibition, 48 h
IGROV-1 = test system: IGROV-1
SF-268 = test system: SF-268
SK-OV-3 = test system: SK-OV-3
Malme-3M = test system: Malme-3M
OVCAR-3 = test system: OVCAR-3
OVCAR-4 = test system: OVCAR-4
UO-31 = test system: UO-31
TK-10 = test system: TK-10
SN12C = test system: SN12C
U-251 = test system: U-251
HCT-116 = test system: HCT-116
HT-29 = test system: HT-29
MOLT-4 = test system: MOLT-4
SK-MEL-5 = test system: SK-MEL-5
DMS-273 = test system: DMS-273
EKVX = test system: EKVX

Measured: GI50

COc1ccc2c([nH]c3c(O)c(-c4c(C)cc5c([nH]c6c(CC=C(C)C)c(OC)ccc65)c4O)c(C)cc32)c1CC=C(C)C [BISMURRAYAFOLINE B]
inactive: IGROV-1 > 100 µM | SF-268 > 100 µM | SK-OV-3 > 100 µM | Malme-3M > 100 µM | OVCAR-3 > 100 µM | OVCAR-4 > 100 µM | UO-31 > 100 µM | TK-10 > 100 µM | SN12C > 100 µM | U-251 > 100 µM | HCT-116 > 100 µM | HT-29 > 100 µM | MOLT-4 > 100 µM | SK-MEL-5 > 100 µM | DMS-273 > 100 µM

CCOC(=O)C1=C(C)N(NC(=O)c2ccccc2)C2(O)CCCC12C(=O)OCC (configuration not stated)
inactive: IGROV-1 > 100 µM | EKVX > 100 µM | SF-268 > 100 µM | SK-OV-3 > 100 µM | Malme-3M > 100 µM | OVCAR-3 > 100 µM | OVCAR-4 > 100 µM | UO-31 > 100 µM | SN12C > 100 µM | U-251 > 100 µM | HCT-116 > 100 µM | HT-29 > 100 µM | MOLT-4 > 100 µM | SK-MEL-5 > 100 µM | DMS-273 > 100 µM

NC(=O)N/N=C(\C(=O)C(=O)Nc1ccc(Cl)c(C(F)(F)F)c1)c1nc2ccc(C(=O)c3ccccc3)cc2nc1O
inactive: IGROV-1 > 100 µM | EKVX 27.2 µM | SF-268 70.3 µM | SK-OV-3 85.7 µM | Malme-3M > 100 µM | OVCAR-4 53.8 µM | UO-31 31.6 µM | TK-10 > 100 µM | SN12C 99.5 µM | U-251 > 100 µM | HCT-116 > 100 µM | HT-29 95.3 µM | MOLT-4 35.3 µM | SK-MEL-5 44.3 µM | DMS-273 > 100 µM

CC1=NN(C(=O)Cc2ccccc2)C(=O)/C1=C\C=C\c1ccccc1
inactive: EKVX > 100 µM | SF-268 > 100 µM | Malme-3M > 100 µM | OVCAR-3 > 100 µM | OVCAR-4 > 100 µM | UO-31 > 100 µM | TK-10 > 100 µM | SN12C > 100 µM | HCT-116 > 100 µM | HT-29 > 100 µM | MOLT-4 > 100 µM | SK-MEL-5 > 100 µM | DMS-273 > 100 µM

CC1CN(C(=O)CN2CCC(CCCCN(C)C)CC2)c2ccccc2NC1=O (configuration not stated)
inactive: IGROV-1 > 100 µM | SF-268 > 100 µM | SK-OV-3 > 100 µM | Malme-3M > 100 µM | OVCAR-3 > 100 µM | OVCAR-4 > 100 µM | UO-31 > 100 µM | SN12C > 100 µM | U-251 > 100 µM | HCT-116 > 100 µM | HT-29 > 100 µM | MOLT-4 > 100 µM | SK-MEL-5 > 100 µM | DMS-273 > 100 µM

Nc1ncnc2c1ncn2CC(O)CO (configuration not stated)
inactive: IGROV-1 > 100 µM | EKVX > 100 µM | SF-268 > 100 µM | SK-OV-3 > 100 µM | Malme-3M > 100 µM | OVCAR-3 > 100 µM | OVCAR-4 > 100 µM | UO-31 > 100 µM | TK-10 > 100 µM | SN12C > 100 µM | HCT-116 > 100 µM | HT-29 > 100 µM | MOLT-4 > 100 µM | SK-MEL-5 > 100 µM | DMS-273 > 100 µM

CC1(C)CCc2cc3c(cc2O1)OC(C)(C)C1c2c(ccc4c2CCC(C)(C)O4)OC31 (configuration not stated)
inactive: IGROV-1 > 100 µM | EKVX 64.6 µM | SF-268 > 100 µM | SK-OV-3 > 100 µM | OVCAR-3 78.3 µM | OVCAR-4 > 100 µM | UO-31 > 100 µM | SN12C > 100 µM | U-251 > 100 µM | HCT-116 > 100 µM | HT-29 > 100 µM | MOLT-4 > 100 µM | SK-MEL-5 > 100 µM | DMS-273 > 100 µM

CCCCCCCCCCCC(=O)OCC1OC(n2cc(F)c(=O)[nH]c2=O)C(N)C(O)C1O (configuration not stated)
inactive: IGROV-1 > 100 µM | EKVX > 100 µM | SF-268 > 100 µM | SK-OV-3 > 100 µM | Malme-3M > 100 µM | OVCAR-3 > 100 µM | OVCAR-4 > 100 µM | UO-31 > 100 µM | SN12C > 100 µM | U-251 79.1 µM | HCT-116 88.1 µM | HT-29 55.3 µM | MOLT-4 36.3 µM | SK-MEL-5 > 100 µM | DMS-273 > 100 µM

c1cc2c(cnc3cscc32)s1
inactive: SF-268 > 100 µM | Malme-3M > 100 µM | OVCAR-3 > 100 µM | OVCAR-4 > 100 µM | UO-31 > 100 µM | TK-10 > 100 µM | SN12C > 100 µM | U-251 > 100 µM | HCT-116 > 100 µM | HT-29 > 100 µM | MOLT-4 > 100 µM | SK-MEL-5 > 100 µM | DMS-273 > 100 µM

O=C(O)CP(=S)(S)c1ccccc1 (configuration not stated)
inactive: EKVX > 100 µM | SF-268 > 100 µM | SK-OV-3 > 100 µM | Malme-3M > 100 µM | OVCAR-4 > 100 µM | UO-31 > 100 µM | TK-10 > 100 µM | SN12C > 100 µM | U-251 > 100 µM | HT-29 > 100 µM | MOLT-4 > 100 µM | SK-MEL-5 > 100 µM | DMS-273 > 100 µM
